One data set concerns the target T1, Ribonuclease A (Bos taurus, UniProt P61823).
T1 sequence (P61823 27-150): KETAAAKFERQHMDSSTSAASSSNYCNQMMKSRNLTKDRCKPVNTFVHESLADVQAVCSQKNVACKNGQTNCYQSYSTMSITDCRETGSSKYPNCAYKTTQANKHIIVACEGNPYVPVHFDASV
Description: Visual detection ribonuclease assay, cleavage of Substrate ODN by RNase A. The data set is classed as biochemical, mammalian. Also noted: key to Sensitivity of Substrate ODN to Ribonuclease A, relative signal intensity: +++ = maximum intensity; ++ = moderate intensity; + = faint but above background; − = negative (identical to background). As to conditions: Substrate 500 nM; for Sensitivity of Substrate ODN to Ribonuclease A, relative signal intensity: visual inspection, UV excitation, 37° C. 60 minutes. Here is the method: Nuclease assays were conducted using the methods of the invention. SEQ ID NO:2 and SEQ ID NO:30 oligonucleotides were individually mixed in 1× Assay Buffer at a concentration of 500 nM (50 pmoles ODN in 100 ul volume) in thin-walled, UV transparent microtubes. RNase A (1 ul, diluted to 0;1 ug/ul) was added to the respective Assay Mixes. […] Assays were set up directly in microtubes as follows:
Assay Mixes were incubated at room temperature for 10 minutes. Assays were visually examined for fluorescence emission directly in the assay tubes without further manipulation. Tubes were suspended above an ultraviolet light source, visually inspected, and photographed using a digital camera. […] The “positive” and “control” reactions appeared markedly different and were easily distinguished. […] The “positive” and “control” reactions were not markedly different to visual inspection.
(§1) Nuclease assays were conducted using the method of the invention with both visual and fluorometric detection methods. Substrates were individually mixed in 1× Assay Buffer at a concentration of 50 nM (50 pmoles oligonucleotide in 1 ml volume) for fluorometric detection or at a concentration of 500 nM (50 pmoles of oligonucleotide in 100 ul volume) for visual detection. Test nucleases were added to respective Assay Mixes beginning at 1 ul stock reagent and proceeding with a 1:10 serial dilution until undetectable. Reaction mixes were incubated at 37° C. for 60 minutes. Fluorometric detection was performed as outlined in Example 2. Visual detection was performed as outlined in Example 1.
Table 6: Sensitivity of different Substrate ODNs to Ribonuclease A. A series of Substrate ODNs were synthesized and tested for sensitivity to RNase A degradation. Stock enzyme was serial diluted to achieve final concentrations of 1 ng/ml, 100 pg/ml, and 10 pg/ml as indicated. Reactions were examined for fluorescence emission by visual inspection using an ultraviolet (UV) light source for excitation. Results were scored as +++, ++, +, or − based on relative signal intensity.
(§2) It is commonly accepted that fluorometry provides for high sensitivity. To be useful, the visual method must also offer high sensitivity. Assays were conducted using the method of the invention with visual detection. Substrate SEQ ID NO:30 was mixed in 1× Assay Buffer at a concentration of 500 nM (50 pmoles ODN in 100 ul volume) in thin-walled, UV transparent tubes. […] Dilutions of stock RNase A, RNase 1, and RNase T1 were made in water. Undiluted and diluted nuclease (1 ul) was added to respective 100 ul Assay Mixes resulting in final dilution factors of 10^−2, 10^−3, 10^−4, 10^−5, 10^−6, and 10^−7. Assays were incubated at room temperature for 10 minutes and visually examined for fluorescence emission with UV excitation. […] The experiment took about 30 minutes to perform, including 15 minutes to set-up serial dilutions, 10 minutes incubation, and 5 minutes to visualize and photograph. Thus the method of the invention allows for a rapid, simple, and convenient visual assay for the presence of ribonuclease activity.

Another data set has as its target DNase I (Bos taurus, UniProt P00639). The experiment in a line: Fluorometric detection nuclease assay, DNase I (nuclease specificity). The class given is biochemical. As to conditions: DNase I 2 units/ml; Substrate 50 nM; 37° C. 1 hour; 490 nm excitation. Here is the method: (§3) Nuclease assays were conducted using the method of the invention. SEQ ID NO:2 and SEQ ID NO:3 oligonucleotides were individually mixed in 1× Assay Buffer at a concentration of 50 nM (150 pmoles oligonucleotide in 3 mls volume). […] Assays were set up directly in cuvettes as follows:
(§4) Assay Mixes were incubated at 37° C. for 1 hour. Fluorescence emission spectra were measured using a PTI fluorometer with 490 nm excitation. Substrate SEQ ID NO:2 (having chimeric RNA-DNA composition) reacted with both DNase I (undesired) and RNase A (desired).

In the next data set the target is T2, RNase A (Bos taurus, UniProt P61823).
T2 sequence (P61823 27-150): T1 sequence (P61823 27-150)
The experiment in a line: Fluorometric detection nuclease assay, RNase A. The following applies: RNase A 0.33 ug/ml; Substrate 50 nM; 37° C. 1 hour; 490 nm excitation. The data set is classed as biochemical, mammalian. Here is the method:
as §3, §4
Nuclease assays were conducted using the method of the invention. The Substrate (SEQ ID NO:30) was mixed in 1× Assay Buffer at a concentration of 50 nM (150 pmoles oligonucleotide in 3 mls volume). Test nucleases were added to respective Assay Mixes, including 1 ul of RNase A (1 ug), 1 ul of RNase 1 (100 units), or 1 ul of RNase T1 (1000 units). […] Assays were set up directly in cuvettes as follows:
Assay Mixes were incubated at 37° C. for 1 hour. Assays were transferred to cuvettes and fluorescence emission at 520 nm was measured using a PTI fluorometer with 490 nm excitation. Substrate SEQ ID NO:30, a preferred Substrate of the invention, reacted with (i.e., detected) all three RNase enzymes, verifying that Substrate compositions of the invention are sensitive to a variety of RNase enzymes.
Substrate SEQ ID NO:30 was mixed in 1× Assay Buffer at a concentration of 50 nM (150 pmoles oligonucleotide in 3 mls volume). RNase A was added at final concentrations of 10 ng/ml, 2 ng/ml, 1 ng/ml, and 0.4 ng/ml. […] Assay mixes were incubated at 37° C. in a cuvette directly in a PTI fluorometer. Fluorescence emission at 520 nm with 490 nm excitation was measured over time. At high nuclease concentrations, the reaction goes rapidly to completion. At lower nuclease concentrations, the reaction rate decreases but with longer incubation times an easily detectable signal is generated. Substrate concentration is fixed and input enzyme (i.e., the test sample) varies. Since the background is stable (monitored in the control reaction), use of extended incubation periods will increase the sensitivity of the assay.
Assays were conducted using the method of the invention with fluorometric detection. Substrate SEQ ID NO:30 was mixed in 1× Assay Buffer at a concentration of 50 nM (50 pmoles ODN in 1.0 ml volume) in RNase-free disposable cuvettes. […] Dilutions of stock RNase A, RNase 1, and RNase T1 were made in water. Undiluted and diluted nuclease (1 ul) was added to respective 1.0 ml Assay Mixes resulting in final dilution factors of 10^−3, 10^−4, 10^−5, 10^−6, 10^−7, 10^−8, and 10^−9. Assays were incubated at 37° C. for 1 hour and examined for fluorescence emission at 520 nm using 490 nm excitation in a PTI fluorometer. Final enzyme concentration reported notes the lowest concentration tested that was reproducibly positive with a signal:noise ratio of at least 2:1.

A further data set concerns the target T3, Ribonuclease T1 (Aspergillus oryzae, UniProt P00651).
T3 sequence (P00651 27-130): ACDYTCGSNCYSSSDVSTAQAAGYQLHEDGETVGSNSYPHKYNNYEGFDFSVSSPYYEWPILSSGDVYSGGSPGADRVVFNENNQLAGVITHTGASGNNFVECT
The experiment in a line: Visual detection ribonuclease assay, cleavage of Substrate ODN by RNase T1. The data set is classed as biochemical. Further details: key to Sensitivity of Substrate ODN to Ribonuclease T1, relative signal intensity: +++ = maximum intensity; ++ = moderate intensity; + = faint but above background; − = negative (identical to background). As to conditions: visual inspection, UV excitation, Substrate 500 nM, 37° C. 60 minutes. Here is the method: as §1
Table 7: Sensitivity of different Substrate ODNs to Ribonuclease T1. A series of Substrate ODNs were synthesized and tested for sensitivity to RNase T1 degradation. Stock enzyme was serial diluted to achieve final concentrations of 0.001 units/ml, 0.0001 units/ml, and 0.00001 units/ml as indicated. Reactions were examined for fluorescence emission by visual inspection using an ultraviolet (UV) light source for excitation. Results were scored as +++, ++, +, or − based on relative signal intensity.
as §2

In data set [1] the test system is Substrate oligonucleotide SEQ ID NO:30. Description: RNase testing of commercially obtained reagents, visual detection. The data set is classed as biochemical. Also noted: key: +++ = maximum intensity; ++ = moderate intensity; + = faint but above background; − = negative (identical to background). As to conditions: reagent diluted 1:10 with Assay Buffer, 50 pmoles Substrate SEQ ID NO:30, 60 minutes at 37° C., UV. Here is the method:
Enzymes were obtained from New England Biolabs (NEB) or Ambion as indicated. Test sample (10 ul) was mixed with 1× buffer (90 ul) for a final volume of 100 ul with 50 pmoles of Substrate SEQ ID NO:30 in 0.5 ml RNase-free microtubes. Assay Mixes were incubated 60 minutes at 37° C. and visually examined under UV excitation for fluorescence emission. After scoring for results, 1 ul (1 ug) of RNase A was added to each tube. The Assay was incubated an additional 5 minutes at 37° C. and re-scored. The addition of RNase A represents a control for the absence of an Assay inhibitor and validates negative results. The “plus RNase A” control was omitted whenever the primary assay was already positive.
Table 9: RNase testing of commercially available reagents. A series of commercially available reagents were diluted 1:10 with Assay Buffer to a final volume of 100 ul. An RNase detection assay was performed using the method of the invention with Substrate oligonucleotide SEQ ID NO:30. Reactions were examined for fluorescence emission by visual inspection using an ultraviolet (UV) light source for excitation. Results were scored as +++, ++, +, or − based on relative signal intensity. As a control, RNase A (1 ug) was added to negative reactions and the Assay was re-scored. ND=not done.

DNase I, sequence (P00639 23-282): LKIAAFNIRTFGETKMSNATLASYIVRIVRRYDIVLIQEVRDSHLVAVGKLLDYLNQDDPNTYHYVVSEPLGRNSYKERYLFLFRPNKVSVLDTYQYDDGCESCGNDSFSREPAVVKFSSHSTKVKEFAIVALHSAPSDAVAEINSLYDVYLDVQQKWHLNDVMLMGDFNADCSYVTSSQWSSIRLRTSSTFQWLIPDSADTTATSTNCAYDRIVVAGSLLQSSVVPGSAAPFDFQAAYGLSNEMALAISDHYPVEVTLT

For the substance “5′ Fluorescein-AAuAA-Dabcyl 3′ (NAAUAAN; 5' fluorescein and 3' Dabcyl labels, nucleotide chemistry not given here) [SEQ ID NO:3]”, the “Sensitivity of Substrate ODN to Ribonuclease A, relative signal intensity” value with Ribonuclease A (RNase A 10 pg/ml) is recorded as “−”; in the data set with Ribonuclease A (RNase A 100 pg/ml) it was “+”; in the data set with Ribonuclease A (RNase A 1 ng/ml), “++”. Moreover, the “Reactivity with DNase I (fluorescence emission spectra)” value with DNase I was “did not react”. The “Reactivity with RNase A (fluorometer)” value with RNase A is listed as “retained reactivity”. For the same substance, the “Sensitivity of Substrate ODN to Ribonuclease T1, relative signal intensity” value with Ribonuclease T1 (RNase T1 10^−3 units/ml), with Ribonuclease T1 (RNase T1 10^−4 units/ml) and with Ribonuclease T1 (RNase T1 10^−5 units/ml) was “−” in each case.

As for “5′ Fluorescein-AuAA-Tamra 3′ (NAUAAN; 5' fluorescein and 3' TAMRA labels, nucleotide chemistry not given here) [SEQ ID NO:2, reference compound]”, the “Fluorescence emission by visual inspection in the presence of RNase” value with Ribonuclease A (RNase A 1.0 ug/ml, room temperature 10 minutes, UV light source) was “changed somewhat in color and slightly increased in intensity”. Also, the “Fluorescence emission by visual inspection in the absence of RNase (control reaction)” value with Ribonuclease A (no nuclease, room temperature 10 minutes, UV light source) was “emitted light”. In addition, the “Reactivity with DNase I (fluorescence emission spectra)” value in the data set with DNase I is recorded as “reacted”. Further, the “Reactivity with RNase A (fluorometer)” value with RNase A is “reacted”.

With “T7 RNA Polymerase: commercial enzyme reagent from Ambion, sold as RNase-free”, the “Assay Results (RNase activity in reagent, relative signal intensity)” value in data set [1] is on record as “−”.

The record behind these values is patent publication US7276337B2, “Compositions and methods for visual ribonuclease detection assays” (Integrated DNA Technologies, Inc., priority 2000, dated 2007).
